Test results from paper PMC10804372, “Degradation by Design: New Cyclin K Degraders from Old CDK Inhibitors” (ACS Chemical Biology, 2024).

Key:
Cyclin K [1] = test: Cyclin K levels by Western blot after single-concentration treatment; format: cell-based, human; details: HEK293T cells, 1 μM for 2 h, quantified from Western blots, mean ± SD, three independent experiments
Outline: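 Cyclin K quantified by Western blot of HEK293T lysates after a single compound concentration, with ImageJ densitometry normalized to GAPDH. Cells grown in DMEM/10% FBS at 37 °C, 5% CO2.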

Cyclin K [2] = test: Cyclin K degradation concentration-response (DC50, DMax) by Western blot; format: cell-based, human; details: HEK293T, Western blot quantification, 3 biological repeats
Outline: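 HEK293T cells treated across a concentration range; lysates immunoblotted for Cyclin K with GAPDH as loading control, ECL detection. Band intensities quantified, Cyclin K normalized to GAPDH, and DC50 derived by 4-parameter nonlinear regression of concentration–response curves.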

CDK12 = target: T1, CDK12 (Homo sapiens, UniProt Q9NYV4); test: KINOMEscan binding assay (Eurofins DiscoverX); details: KINOMEscan
T1 construct: purchased Eurofins DiscoverX (KINOMEscan service)

HEK293T cells = test: Proteome-wide quantitation by mass spectrometry (TMT); format: cell-based, human; details: for log2FC compound 41: 1uM, 2h

T1 sequence (Q9NYV4 whole entry): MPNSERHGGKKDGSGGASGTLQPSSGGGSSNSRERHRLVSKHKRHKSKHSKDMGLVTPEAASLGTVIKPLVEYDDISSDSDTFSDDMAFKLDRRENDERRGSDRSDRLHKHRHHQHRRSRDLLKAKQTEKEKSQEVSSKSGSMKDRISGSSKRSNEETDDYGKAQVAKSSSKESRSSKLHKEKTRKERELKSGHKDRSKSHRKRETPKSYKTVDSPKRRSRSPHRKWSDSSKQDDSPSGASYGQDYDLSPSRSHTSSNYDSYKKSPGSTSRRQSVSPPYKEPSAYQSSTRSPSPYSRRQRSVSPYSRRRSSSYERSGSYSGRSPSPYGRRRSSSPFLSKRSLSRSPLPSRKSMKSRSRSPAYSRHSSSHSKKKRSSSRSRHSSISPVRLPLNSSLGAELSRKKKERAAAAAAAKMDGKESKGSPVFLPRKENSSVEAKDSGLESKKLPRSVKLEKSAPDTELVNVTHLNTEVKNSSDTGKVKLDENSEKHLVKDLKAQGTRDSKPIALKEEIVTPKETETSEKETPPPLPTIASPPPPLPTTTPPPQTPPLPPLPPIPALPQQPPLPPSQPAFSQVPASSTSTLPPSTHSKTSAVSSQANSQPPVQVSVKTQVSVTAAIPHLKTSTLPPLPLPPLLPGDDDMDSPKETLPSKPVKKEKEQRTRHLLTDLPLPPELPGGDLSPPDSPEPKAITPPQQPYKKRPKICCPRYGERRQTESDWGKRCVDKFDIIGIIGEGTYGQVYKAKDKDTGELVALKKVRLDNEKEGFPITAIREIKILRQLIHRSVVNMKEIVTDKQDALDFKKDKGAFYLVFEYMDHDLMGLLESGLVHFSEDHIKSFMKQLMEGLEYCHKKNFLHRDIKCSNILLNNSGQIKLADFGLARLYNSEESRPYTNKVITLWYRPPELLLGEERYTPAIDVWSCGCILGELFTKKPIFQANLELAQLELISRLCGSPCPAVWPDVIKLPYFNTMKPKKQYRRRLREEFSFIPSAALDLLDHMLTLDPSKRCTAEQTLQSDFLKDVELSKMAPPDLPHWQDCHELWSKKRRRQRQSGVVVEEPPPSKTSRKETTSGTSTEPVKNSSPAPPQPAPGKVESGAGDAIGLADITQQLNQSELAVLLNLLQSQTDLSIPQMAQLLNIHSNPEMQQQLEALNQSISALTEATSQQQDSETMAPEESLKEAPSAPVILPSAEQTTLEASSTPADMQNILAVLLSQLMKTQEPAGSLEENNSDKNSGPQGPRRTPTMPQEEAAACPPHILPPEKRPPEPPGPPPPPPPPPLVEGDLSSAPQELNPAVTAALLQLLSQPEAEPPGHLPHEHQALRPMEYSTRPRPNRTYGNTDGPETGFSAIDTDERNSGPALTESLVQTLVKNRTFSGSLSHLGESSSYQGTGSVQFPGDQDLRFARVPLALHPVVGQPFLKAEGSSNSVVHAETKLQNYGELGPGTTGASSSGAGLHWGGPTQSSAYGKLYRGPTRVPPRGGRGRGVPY

SMILES: O=C(NCc1ccc(C2=CCOCC2)cc1)c1n[nH]cc1NC(=O)c1c(Cl)cccc1Cl [compound 41]
- Remaining Cyclin K (%) (Cyclin K [1]): 3 ± 1%
- DMax (%) (Cyclin K [2]): >95%
- DC50 (Cyclin K [2]; read-out: CycK DC50): 141 nM
- Kd (CDK12): 3800 nM
- log2FC compound 41 (HEK293T cells): 1.1108
- number of proteins showing at least a −0.5 log2 fold change (HEK293T cells; HEK293T, 1 μM, 2 h treatment): 33 proteins
- log2FC compound 41 (HEK293T cells; protein AKR7A2 (Aflatoxin B1 aldehyde reductase member 2, O43488)): -0.7339
- log2FC compound 41 (HEK293T cells; protein ALG10 (Dol-P-Glc:Glc(2)Man(9)GlcNAc(2)-PP-Dol alpha-1,2-glucosyltransferase, Q5BKT4)): 0.9798
- log2FC compound 41 (HEK293T cells; protein ALKBH2 (DNA oxidative demethylase ALKBH2, Q6NS38)): 0.728
- log2FC compound 41 (HEK293T cells; protein ARF4 (ADP-ribosylation factor 4, P18085)): 0.7714
- log2FC compound 41 (HEK293T cells; protein ATP6AP1 (V-type proton ATPase subunit S1, Q15904)): 0.6251
- log2FC compound 41 (HEK293T cells; protein B3GLCT (Beta-1,3-glucosyltransferase, Q6Y288)): 0.6029
- log2FC compound 41 (HEK293T cells; protein BTF3L4 (Transcription factor BTF3 homolog 4, Q96K17)): 0.5924
- log2FC compound 41 (HEK293T cells; protein C1orf167 (Uncharacterized protein C1orf167, Q5SNV9)): 1.3705
- log2FC compound 41 (HEK293T cells; protein CCNK (Cyclin-K, O75909)): -1.4213
- log2FC compound 41 (HEK293T cells; protein CD9 (CD9 antigen, P21926)): 0.6995
- log2FC compound 41 (HEK293T cells; protein CD59 (CD59 glycoprotein, P13987)): 1.3635
- log2FC compound 41 (HEK293T cells; protein CD63 (CD63 antigen, P08962)): 1.3469
- log2FC compound 41 (HEK293T cells; protein CD151 (CD151 antigen, P48509)): 0.7942
- log2FC compound 41 (HEK293T cells; protein CDKL5 (Cyclin-dependent kinase-like 5, O76039)): 1.2994
- log2FC compound 41 (HEK293T cells; protein CENPW (Centromere protein W, Q5EE01)): 0.6212
- log2FC compound 41 (HEK293T cells; protein CERS1 (Ceramide synthase 1, P27544)): 0.5956
- log2FC compound 41 (HEK293T cells; protein CHCHD1 (Coiled-coil-helix-coiled-coil-helix domain-containing protein 1, Q96BP2)): -0.843
- log2FC compound 41 (HEK293T cells; protein CHCHD2 (Coiled-coil-helix-coiled-coil-helix domain-containing protein 2, Q9Y6H1)): -0.961
- log2FC compound 41 (HEK293T cells; protein CNOT8 (CCR4-NOT transcription complex subunit 8, Q9UFF9)): 0.5912
- log2FC compound 41 (HEK293T cells; protein COA7 (Cytochrome c oxidase assembly factor 7, Q96BR5)): -0.7413
- log2FC compound 41 (HEK293T cells; protein COPRS (Coordinator of PRMT5 and differentiation stimulator, Q9NQ92)): 0.7957
- log2FC compound 41 (HEK293T cells; protein COX6B1 (Cytochrome c oxidase subunit 6B1, P14854)): 0.7689
- log2FC compound 41 (HEK293T cells; protein COX7A2 (Cytochrome c oxidase subunit 7A2, mitochondrial, P14406)): -1.7055
- log2FC compound 41 (HEK293T cells; protein CSNK2B (Casein kinase II subunit beta, P67870)): 0.62
- log2FC compound 41 (HEK293T cells; protein CTSV (Cathepsin L2, O60911)): 0.7835
- log2FC compound 41 (HEK293T cells; protein DCDC1 (Doublecortin domain-containing protein 1, M0R2J8)): 1.8264
- log2FC compound 41 (HEK293T cells; protein DHX58 (Probable ATP-dependent RNA helicase DHX58, Q96C10)): 1.0451
- log2FC compound 41 (HEK293T cells; protein DNAJC5 (DnaJ homolog subfamily C member 5, Q9H3Z4)): 0.994
- log2FC compound 41 (HEK293T cells; protein DNPEP (Aspartyl aminopeptidase, Q9ULA0)): 0.6304
- log2FC compound 41 (HEK293T cells; protein DYNLL1 (Dynein light chain 1, cytoplasmic, P63167)): -0.6985
- log2FC compound 41 (HEK293T cells; protein ECI1 (Enoyl-CoA delta isomerase 1, mitochondrial, P42126)): 0.8277
- log2FC compound 41 (HEK293T cells; protein EI24 (Etoposide-induced protein 2.4 homolog, O14681)): 0.8122
- log2FC compound 41 (HEK293T cells; protein EIF5A2 (Eukaryotic translation initiation factor 5A-2, Q9GZV4)): 1.4183
- log2FC compound 41 (HEK293T cells; protein ELP5 (Elongator complex protein 5, Q8TE02)): 0.6971
- log2FC compound 41 (HEK293T cells; protein ERGIC3 (Endoplasmic reticulum-Golgi intermediate compartment protein 3, Q9Y282)): -0.6608
- log2FC compound 41 (HEK293T cells; protein FAM219A (Protein FAM219A, Q8IW50)): 0.6921
- log2FC compound 41 (HEK293T cells; protein FAM234A (Protein FAM234A, Q9H0X4)): 0.9598
- log2FC compound 41 (HEK293T cells; protein GGH (Gamma-glutamyl hydrolase, Q92820)): 0.639
- log2FC compound 41 (HEK293T cells; protein GNA15 (Guanine nucleotide-binding protein subunit alpha-15, P30679)): 1.1022
- log2FC compound 41 (HEK293T cells; protein GYG2 (Glycogenin-2, O15488)): 0.8256
- log2FC compound 41 (HEK293T cells; protein H2AC6 (Histone H2A type 1-C, Q93077)): -2.3143
- log2FC compound 41 (HEK293T cells; protein H2AC14 (Histone H2A type 1-J, Q99878)): -2.3989
- log2FC compound 41 (HEK293T cells; protein HMGN2 (Non-histone chromosomal protein HMG-17, P05204)): -0.8432
- log2FC compound 41 (HEK293T cells; protein HNRNPA2B1 (Heterogeneous nuclear ribonucleoproteins A2/B1, P22626)): -0.5885
- log2FC compound 41 (HEK293T cells; protein HSPB11 (Intraflagellar transport protein 25 homolog, Q9Y547)): 0.7236
- log2FC compound 41 (HEK293T cells; protein KCTD1 (BTB/POZ domain-containing protein KCTD1, Q719H9)): 0.9367
- log2FC compound 41 (HEK293T cells; protein KIAA0930 (Uncharacterized protein KIAA0930, Q6ICG6)): 0.6862
- log2FC compound 41 (HEK293T cells; protein KIAA1549 (UPF0606 protein KIAA1549, Q9HCM3)): 0.7226
- log2FC compound 41 (HEK293T cells; protein LIPA (Lysosomal acid lipase/cholesteryl ester hydrolase, P38571)): 0.766
- log2FC compound 41 (HEK293T cells; protein LIPT2 (Putative lipoyltransferase 2, mitochondrial, A6NK58)): -0.7183
- log2FC compound 41 (HEK293T cells; protein LPCAT3 (Lysophospholipid acyltransferase 5, Q6P1A2)): 1.5824
- log2FC compound 41 (HEK293T cells; protein LPIN2 (Phosphatidate phosphatase LPIN2, Q92539)): 0.7762
- log2FC compound 41 (HEK293T cells; protein LSM1 (U6 snRNA-associated Sm-like protein LSm1, O15116)): 1.1318
- log2FC compound 41 (HEK293T cells; protein MEIS1 (Homeobox protein Meis1, O00470)): -0.7006
- log2FC compound 41 (HEK293T cells; protein MGARP (Protein MGARP, Q8TDB4)): 0.8294
- log2FC compound 41 (HEK293T cells; protein MKRN1 (E3 ubiquitin-protein ligase makorin-1, Q9UHC7)): 0.6085
- log2FC compound 41 (HEK293T cells; protein MRPL24 (39S ribosomal protein L24, mitochondrial, Q96A35)): -0.8105
- log2FC compound 41 (HEK293T cells; protein MSMO1 (Methylsterol monooxygenase 1, Q15800)): 0.6949
- log2FC compound 41 (HEK293T cells; protein MT-ND4 (NADH-ubiquinone oxidoreductase chain 4, P03905)): 0.7038
- log2FC compound 41 (HEK293T cells; protein NCBP2AS2 (Protein NCBP2AS2, Q69YL0)): -0.5975
- log2FC compound 41 (HEK293T cells; protein NIPA2 (Magnesium transporter NIPA2, Q8N8Q9)): 0.8891
- log2FC compound 41 (HEK293T cells; protein NSMCE4A (Non-structural maintenance of chromosomes element 4 homolog A, Q9NXX6)): 0.6459
- log2FC compound 41 (HEK293T cells; protein NXT2 (NTF2-related export protein 2, Q9NPJ8)): 1.4453
- log2FC compound 41 (HEK293T cells; protein ORC4 (Origin recognition complex subunit 4, O43929)): 0.6334
- log2FC compound 41 (HEK293T cells; protein OSTC (Oligosaccharyltransferase complex subunit OSTC, Q9NRP0)): 0.6129
- log2FC compound 41 (HEK293T cells; protein POP5 (Ribonuclease P/MRP protein subunit POP5, Q969H6)): 0.6256
- log2FC compound 41 (HEK293T cells; protein PPP1CB (Serine/threonine-protein phosphatase PP1-beta catalytic subunit, P62140)): -0.8644
- log2FC compound 41 (HEK293T cells; protein PRPF38A (Pre-mRNA-splicing factor 38A, Q8NAV1)): 0.6341
- log2FC compound 41 (HEK293T cells; protein RBX1 (E3 ubiquitin-protein ligase RBX1, P62877)): 0.6251
- log2FC compound 41 (HEK293T cells; protein RER1 (Protein RER1, O15258)): 0.5922
- log2FC compound 41 (HEK293T cells; protein RPS29 (40S ribosomal protein S29, P62273)): -1.1057
- log2FC compound 41 (HEK293T cells; protein SDHAF4 (Succinate dehydrogenase assembly factor 4, mitochondrial, Q5VUM1)): 0.8419
- log2FC compound 41 (HEK293T cells; protein SEC11C (Signal peptidase complex catalytic subunit SEC11C, Q9BY50)): -0.5851
- log2FC compound 41 (HEK293T cells; protein SERINC3 (Serine incorporator 3, Q13530)): 0.6778
- log2FC compound 41 (HEK293T cells; protein SIAE (Sialate O-acetylesterase, Q9HAT2)): 0.753
- log2FC compound 41 (HEK293T cells; protein SLC25A17 (Peroxisomal membrane protein PMP34, O43808)): 1.1015
- log2FC compound 41 (HEK293T cells; protein SLC44A2 (Choline transporter-like protein 2, Q8IWA5)): 1.0845
- log2FC compound 41 (HEK293T cells; protein SPCS1 (Signal peptidase complex subunit 1, Q9Y6A9)): 0.6654
- log2FC compound 41 (HEK293T cells; protein STEAP2 (Metalloreductase STEAP2, Q8NFT2)): 0.6125
- log2FC compound 41 (HEK293T cells; protein SURF4 (Surfeit locus protein 4, O15260)): 0.8751
- log2FC compound 41 (HEK293T cells; protein TECR (Very-long-chain enoyl-CoA reductase, Q9NZ01)): 0.5914
- log2FC compound 41 (HEK293T cells; protein TMCC3 (Transmembrane and coiled-coil domain protein 3, Q9ULS5)): 0.6529
- log2FC compound 41 (HEK293T cells; protein TMED5 (Transmembrane emp24 domain-containing protein 5, Q9Y3A6)): 0.6722
- log2FC compound 41 (HEK293T cells; protein TMEM41A (Transmembrane protein 41A, Q96HV5)): 0.881
- log2FC compound 41 (HEK293T cells; protein TMSB4X (Thymosin beta-4, P62328)): -1.1542
- log2FC compound 41 (HEK293T cells; protein TVP23C (Golgi apparatus membrane protein TVP23 homolog C, Q96ET8)): 0.698
- log2FC compound 41 (HEK293T cells; protein UBE2R2 (Ubiquitin-conjugating enzyme E2 R2, Q712K3)): -0.7129
- log2FC compound 41 (HEK293T cells; protein WHAMM (WASP homolog-associated protein with actin, membranes and microtubules, Q8TF30)): -0.8329
- log2FC compound 41 (HEK293T cells; protein XPOT (Exportin-T, O43592)): 0.6641
- log2FC compound 41 (HEK293T cells; protein ZBTB17 (Zinc finger and BTB domain-containing protein 17, Q13105)): 1.0947
